Assay results taken from patent US10328094B2, “Compound from the avermectin family for treating and/or preventing folliculitis” (GALDERMA SA, priority 2015, dated 2019).
Entries after “also recorded” stand apart in the source; their conditions may differ.

How the values were obtained:
[1] = system: primary human keratinocytes; assay: CXCL14 and CCL5 protein concentration by ELISA assay in primary human keratinocytes; format: cell-based
Protocol: Another objective of the present study was to identify the effect of ivermectin on the CXCL14 and CCL5 protein level of
(§1) To do this, primary human keratinocytes were cultured with various concentrations of EGFR inhibitor (in this case erlotinib) each with +/− TNF-α/IL-1β, various concentrations of ivermectin alone each with +/− TNF-α/IL-1β various concentrations of erlotinib and of ivermectin each with +/− TNF-α/IL-1β. The addition of the pro-inflammatory cytokines TNFα and IL1β makes it possible to mimic the skin inflammation.
(§2) The various concentrations used were the following: • Erlotinib: 0-0.1 μM-1 μM-10 μM (each with +/− TNF-α/IL-1β) • Ivermectin: 0-0.1 μM-1 μM-10 μM (each with +/− TNF-α/IL-1β) • Co-stimulation: • Erlotinib (0.1 μM)+Ivermectin (1 μM) (+/− TNF-α/IL-1β) • Erlotinib (0.1 μM)+Ivermectin (5 μM) (+/− TNF-α/IL-1β) • Erlotinib (1 μM)+Ivermectin (1 μM)+/− TNF-α/IL-1β) • Erlotinib (1 μM)+Ivermectin (5 μM) (+/− TNF-α/IL-1β)
(§3) The expression of the CXCL14, CCL5 (chemokines), RNase 7, HBD3 and LL37 (antimicrobial peptides) genes was analyzed by quantitative PCR. The protein concentration of the chemokines CXCL14 and CCL5 was quantified using an ELISA assay.

[2] = system: primary human keratinocytes; assay: Gene expression by quantitative PCR in primary human keratinocytes treated with erlotinib and/or ivermectin +/- TNF-α/IL-1β; format: cell-based
Protocol: A study was carried out on primary human keratinocytes in vitro, in order to determine the effect of ivermectin on the regulation of genes of which the expression has been identified as being modulated by EGFR inhibitors. Said genes identified are the pro-inflammatory chemokines CCL2, CCL5, CCL27 and CXCL14 and the cytokines of the IL-1β family, but also the genes of antimicrobial peptides RNase7, HBD3 and LL37.
as §1, §2, §3

[3] = ivermectin in combination with erlotinib, +/- TNFα/IL1β
[4] = erlotinib and TNFα/IL1β, without ivermectin
[5] = erlotinib without ivermectin, listed as erlitonib

expression of RNase 7 (gene, quantitative PCR) ([2]; erlotinib without ivermectin) | Structure (SMILES) | CXCL14 protein level (ELISA) ([1]; ivermectin in combination with erlotinib and TNFα/IL1β) | expression of CCL5 (gene, quantitative PCR) [2, 3] | expression of CXCL14 (gene, quantitative PCR) [2, 3] | expression of HBD3 (gene, quantitative PCR) [2, 3] | expression of RNase 7 (gene, quantitative PCR) ([2]; ivermectin in combination with erlotinib, various concentrations) | CCL5 protein concentration (ELISA) [1, 4] | CXCL14 protein concentration (ELISA) [1, 4] | expression of CCL5 (gene, quantitative PCR) ([2]; erlotinib without ivermectin) | expression of CXCL14 (gene, quantitative PCR) ([2]; erlotinib without ivermectin) | expression of HBD3 (gene, quantitative PCR) ([2]; erlotinib without ivermectin) | expression of CCL5 (gene, quantitative PCR) [2, 5] | expression of CXCL14 (gene, quantitative PCR) [2, 5]
– | CC[C@H](C)[C@H]1O[C@]2(CC[C@@H]1C)C[C@@H]1C[C@@H](C/C=C(\C)[C@@H](O[C@H]3C[C@H](OC)[C@@H](O[C@H]4C[C@H](OC)[C@@H](O)[C@H](C)O4)[C@H](C)O3)[C@@H](C)/C=C/C=C3\CO[C@@H]4[C@H](O)C(C)=C[C@@H](C(=O)O1)[C@]34O)O2 [ivermectin] | decrease the protein level | significant modification of the induction; also recorded: reduce the overexpression | significant modification of the induction; also recorded: reduce the overexpression | induce the expression | re-establish the expression of RNase 7 greatly decreased in the presence of erlotinib but also to induce a strong expression thereof | – | – | – | – | – | – | –
greatly decreased | C#Cc1cccc(Nc2ncnc3cc(OCCOC)c(OCCOC)cc23)c1 [erlotinib] | – | – | – | – | – | increase | increase | induction | induction | decreased | overexpression | overexpression
